Measurements published in patent publication US20170097335A1, “Methods for Diagnosing Impaired Absorption of Amino Acids, Monosaccharides and Fatty Acids” (The Texas A&M University System, priority 2015, published 2017).

Experiments:
[1] = Conversion of D- into L-phenylalanine; type: in vivo; conditions: observed in the pig
Excerpt: This allows for an estimation of the potential disturbance of the digestion and splanchnic extraction measurements that also involve L-phenylalanine stable isotopes.

[2] = Ratio of enterally to intravenously provided L-allo-isoleucine isotopologues in blood samples, pig model; type: in vivo
Procedure: (§1) Both human and animal models were used for measuring protein absorption in the intestinal walls. The subjects were prepared with indwelling catheters to enable blood sampling. Stable isotopes of amino acids are obtained and made into sterile and pyrogen-free solutions. These isotopes may comprise L-allo-[^2H10, ^15N]-isoleucine, L-allo-[^13C6]-isoleucine, D-1-[^13C]phenylalanine, D-C^3C6]phenylalanine, D-[^2H5]-phenylalanine, D-[2-^2H]phenylalanine. A blood sample is taken or drawn from each subject for a measurement of the natural background. A bolus or continuous infusion of the stable isotope of the amino acid may be used. The labeled amino acid is administered orally to each subject and another isotope of the amino acid nutrient is administered intravenously to the same subject at the same time or within 8 hours. Blood samples are taken or drawn from each subject in the time window of about one to several hours. The labeled amino acids enrichments in each sample are analyzed by Mass Spectrometry. Results from the Mass Spectrometry are applied to a non-compartmental model for analysis and ratio determination. The metabolic phenotype is produced based on the measured amino acids production, consumption and metabolism.

[3] = Protein absorption in the intestinal walls: ratio of orally to intravenously provided isotopologue in blood, healthy volunteers; type: in vivo, human; conditions: FIG. 1
Procedure: as §1

For `N[C@H](Cc1ccccc1)C(=O)O` [D-phenylalanine], the “conversion rate of D- into L-phenylalanine” value [1] was 10%.
With `[13CH3][13CH2][13C@@H]([13CH3])[13C@H](N)[13C](=O)O` [L-allo-[^13C6]-isoleucine] the “ratio of enterally administered over intravenously administered isotopologue” value ([2]; continuously fed pig (4 hours), over intravenously administered L-allo-[^2H10, ^15M-isoleucine, FIG. 4) was “about 0.8” and the “ratio of enterally administered over intravenously administered isotopologue” value ([2]; pigs with bolus feeding for 4 hours, over intravenously administered allo-Isoleucine[^2H10, ^15N](M9+M11), FIG. 5) was “about 0.8”.
In the case of `CC[C@@H](C)[C@H](N)C(=O)O` [L-allo-isoleucine], the “absorption ratio of orally provided isotopologue over intravenously provided isotopologue” value [3] is reported as “about 0.8”.
